Experimental data reported in ChEMBL document CHEMBL4699534, “Optimizing PEG-Extended Apelin Analogues as Cardioprotective Drug Leads: Importance of the KFRR Motif and Aromatic Head Group for Improved Physiological Activity” (J Med Chem, 2020).
pEC50, pIC50: −log10 of the molar value. Non-standard residues stand in square brackets, D forms with d. Residues, ends and D or L forms follow the SMILES beside them. *: point of attachment. CH3O(CH2CH2O)7C2H4CO = COCCOCCOCCOCCOCCOCCOCCOCCC(=O)*; Bpa = N[C@@H](Cc1ccc(C(=O)c2ccccc2)cc1)C(=O)O; Phe(4-Br) = N[C@@H](Cc1ccc(Br)cc1)C(=O)O; PEG7 = NCCOCCOCCOCCOCCOCCOCCOCCC(=O)O; Fmoc = O=C(OCC1c2ccccc2-c2ccccc21)*; NMeL = CN[C@@H](CC(C)C)C(=O)O; PEG4 = NCCOCCOCCOCCOCCC(=O)O; PEG3 = NCCOCCOCCOCCC(=O)O; Nle = CCCC[C@H](N)C(=O)O; X1 = COCCOCCOCCOCCC(=O)*; Aib = CC(C)(N)C(=O)O

What was measured:
[1] = Half life in human plasma at 400 uM by HPLC analysis; assay type: ADME, cell-free
Apelin receptor [2] = target: T1, Apelin receptor (Homo sapiens, UniProt P35414); experiment: Activation of APJ receptor (unknown origin) expressed in Chem-5 cells assessed as stimulation of Ca2+ mobilization by Calcium 6-GF dye based fluorescence based assay; assay type: functional, cell-based
T1 sequence (P35414 whole entry): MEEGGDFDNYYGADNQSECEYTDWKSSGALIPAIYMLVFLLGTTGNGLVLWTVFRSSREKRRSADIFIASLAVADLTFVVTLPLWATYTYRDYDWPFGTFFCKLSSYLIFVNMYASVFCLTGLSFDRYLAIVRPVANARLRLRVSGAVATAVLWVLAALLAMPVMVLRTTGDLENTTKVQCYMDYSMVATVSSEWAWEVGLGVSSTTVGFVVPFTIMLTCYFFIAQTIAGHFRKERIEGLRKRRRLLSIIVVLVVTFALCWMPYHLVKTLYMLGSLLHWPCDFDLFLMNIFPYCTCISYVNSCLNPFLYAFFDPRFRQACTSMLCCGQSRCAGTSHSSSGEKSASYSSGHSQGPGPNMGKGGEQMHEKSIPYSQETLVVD

Apelin receptor [3] = target: T2, Apelin receptor (Rattus norvegicus, UniProt Q9JHG3); experiment: Displacement of [125I]-pyr-1-apelin-13 from EGFP-tagged wild-type rat apelin receptor expressed in CHO cell membranes by gamma counting method; parameters: species or system Cell membrane
T2 sequence (Q9JHG3 whole entry): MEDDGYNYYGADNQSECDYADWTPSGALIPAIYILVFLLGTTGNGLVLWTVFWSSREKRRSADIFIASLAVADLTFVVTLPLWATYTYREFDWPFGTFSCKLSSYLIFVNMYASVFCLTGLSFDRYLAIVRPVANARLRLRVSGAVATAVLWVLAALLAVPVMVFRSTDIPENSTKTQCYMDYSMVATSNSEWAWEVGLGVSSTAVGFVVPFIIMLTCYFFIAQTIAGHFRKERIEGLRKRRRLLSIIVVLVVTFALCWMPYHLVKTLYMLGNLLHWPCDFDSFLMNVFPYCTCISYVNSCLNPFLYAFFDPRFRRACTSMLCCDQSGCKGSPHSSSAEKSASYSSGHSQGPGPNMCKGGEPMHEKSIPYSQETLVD

Mus musculus = experiment: Cardioprotective activity in C57BL/6 mouse assessed as reduction in mean arterial blood pressure at 1.4 uM/kg, iv measured after 15 mins relative to control; assay type: functional; conditions: 0.25 h

Row | SMILES | half-life at 400 µM [1] | pEC50 (Apelin receptor [2]) | pIC50 (Apelin receptor [3]) | Activity (Mus musculus)
1 | CCCC[C@H](NC(=O)[C@@H]1CCCN1C(=O)CNC(=O)[C@H](CCCCN)NC(=O)[C@H](Cc1c[nH]cn1)NC(=O)[C@H](CO)NC(=O)[C@H](CC(C)C)N(C)C(=O)[C@H](CCCNC(=N)N)NC(=O)[C@@H]1CCCN1C(=O)[C@H](CCCNC(=N)N)NC(=O)[C@H](CCC(N)=O)NC(=O)[C@H](CCCNC(=N)N)NC(=O)[C@H](CCCNC(=N)N)NC(=O)[C@H](Cc1ccccc1)NC(=O)[C@H](CCCCN)NC(=O)CCOCCOCCOCCOC)C(=O)NC(C)(C)C(=O)N[C@@H](Cc1ccc(Br)cc1)C(=O)O (X1-KFRRQRPR[NMeL]SHKGP[Nle][Aib][Phe(4-Br)]-OH) | 2.8 h | 7.27 | 8.48 | 32 mmHg
2 | CCCC[C@H](NC(=O)[C@@H]1CCCN1C(=O)CNC(=O)[C@H](CCCCN)NC(=O)[C@H](Cc1c[nH]cn1)NC(=O)[C@H](CO)NC(=O)[C@H](CC(C)C)N(C)C(=O)[C@H](CCCNC(=N)N)NC(=O)[C@@H]1CCCN1C(=O)[C@H](CCCNC(=N)N)NC(=O)[C@H](CCC(N)=O)NC(=O)[C@H](CCCNC(=N)N)NC(=O)[C@H](CCCNC(=N)N)NC(=O)[C@H](Cc1ccccc1)NC(=O)[C@H](CCCCN)NC(=O)CCOCCOCCOCCOCCN)C(=O)NC(C)(C)C(=O)N[C@@H](Cc1ccc(Br)cc1)C(=O)O (H-[PEG4]KFRRQRPR[NMeL]SHKGP[Nle][Aib][Phe(4-Br)]-OH) | 2 h | 8.11 | 8.20 | 24 mmHg
3 | CCCC[C@H](NC(=O)[C@@H]1CCCN1C(=O)CNC(=O)[C@H](CCCCN)NC(=O)[C@H](Cc1c[nH]cn1)NC(=O)[C@H](CO)NC(=O)[C@H](CC(C)C)N(C)C(=O)[C@H](CCCNC(=N)N)NC(=O)[C@@H]1CCCN1C(=O)[C@H](CCCNC(=N)N)NC(=O)[C@H](CCC(N)=O)NC(=O)[C@H](CCCNC(=N)N)NC(=O)[C@H](CCCNC(=N)N)NC(=O)[C@H](Cc1ccccc1)NC(=O)[C@H](CCCCN)NC(=O)CCOCCOCCOCCOCCOCCOCCOCCNC(=O)[C@@H](N)Cc1ccc(C(=O)c2ccccc2)cc1)C(=O)NC(C)(C)C(=O)N[C@@H](Cc1ccc(Br)cc1)C(=O)O (H-[Bpa][PEG7]KFRRQRPR[NMeL]SHKGP[Nle][Aib][Phe(4-Br)]-OH) | 8.2 h | 7.05 | 8.89 | 43 mmHg
4 | CCCC[C@H](NC(=O)[C@@H]1CCCN1C(=O)CNC(=O)[C@H](CCCCN)NC(=O)[C@H](Cc1c[nH]cn1)NC(=O)[C@H](CO)NC(=O)[C@H](CC(C)C)N(C)C(=O)[C@H](CCCNC(=N)N)NC(=O)[C@@H]1CCCN1C(=O)[C@H](CCCNC(=N)N)NC(=O)[C@H](CCC(N)=O)NC(=O)[C@H](CCCNC(=N)N)NC(=O)[C@H](CCCNC(=N)N)NC(=O)[C@H](Cc1ccccc1)NC(=O)[C@H](CCCCN)NC(=O)CCOCCOCCOCCOCCOCCOCCOCCOC)C(=O)NC(C)(C)C(=O)N[C@@H](Cc1ccc(Br)cc1)C(=O)O ({CH3O(CH2CH2O)7C2H4CO}-KFRRQRPR[NMeL]SHKGP[Nle][Aib][Phe(4-Br)]-OH) | 0.7 h | 8.09 | 8.77 | 30 mmHg
5 | CCCC[C@H](NC(=O)[C@@H]1CCCN1C(=O)CNC(=O)[C@H](CCCCN)NC(=O)[C@H](Cc1c[nH]cn1)NC(=O)[C@H](CO)NC(=O)[C@H](CC(C)C)N(C)C(=O)[C@H](CCCNC(=N)N)NC(=O)[C@@H]1CCCN1C(=O)[C@H](CCCNC(=N)N)NC(=O)[C@H](CCC(N)=O)NC(=O)[C@H](CCCNC(=N)N)NC(=O)[C@H](CCCNC(=N)N)NC(=O)[C@H](Cc1ccccc1)NC(=O)[C@H](CCCCN)NC(=O)CCOCCOCCOCCNC(=O)OCC1c2ccccc2-c2ccccc21)C(=O)NC(C)(C)C(=O)N[C@@H](Cc1ccc(Br)cc1)C(=O)O ({Fmoc-PEG3}-KFRRQRPR[NMeL]SHKGP[Nle][Aib][Phe(4-Br)]-OH) | 2 h | 7.77 | 8.60 | 32 mmHg
6 | CCCC[C@H](NC(=O)[C@@H]1CCCN1C(=O)CNC(=O)[C@H](CCCCN)NC(=O)[C@H](Cc1c[nH]cn1)NC(=O)[C@H](CO)NC(=O)[C@H](CC(C)C)NC(=O)[C@H](CCCNC(=N)N)NC(=O)[C@@H]1CCCN1C(=O)[C@H](CCCNC(=N)N)NC(=O)[C@H](CCC(N)=O)NC(=O)[C@H](CCCNC(=N)N)NC(=O)[C@H](CCCNC(=N)N)NC(=O)[C@H](C)NC(=O)[C@@H](N)CCCCN)C(=O)NC(C)(C)C(=O)N[C@@H](Cc1ccc(Br)cc1)C(=O)O (H-KARRQRPRLSHKGP[Nle][Aib][Phe(4-Br)]-OH) |  |  | 9.53 | 
7 | CCCC[C@H](NC(=O)[C@@H]1CCCN1C(=O)CNC(=O)[C@H](CCCCN)NC(=O)[C@H](Cc1c[nH]cn1)NC(=O)[C@H](CO)NC(=O)[C@H](CC(C)C)NC(=O)[C@H](CCCNC(=N)N)NC(=O)[C@@H]1CCCN1C(=O)[C@H](CCCNC(=N)N)NC(=O)[C@H](CCC(N)=O)NC(=O)[C@H](CCCNC(=N)N)NC(=O)[C@H](CCCNC(=N)N)NC(=O)[C@H](Cc1ccccc1)NC(=O)[C@H](C)N)C(=O)NC(C)(C)C(=O)N[C@@H](Cc1ccc(Br)cc1)C(=O)O (H-AFRRQRPRLSHKGP[Nle][Aib][Phe(4-Br)]-OH) |  |  | 9.70 | 
8 | CCCC[C@H](NC(=O)[C@@H]1CCCN1C(=O)CNC(=O)[C@H](CCCCN)NC(=O)[C@H](Cc1c[nH]cn1)NC(=O)[C@H](CO)NC(=O)[C@H](CC(C)C)NC(=O)[C@H](CCCNC(=N)N)NC(=O)[C@@H]1CCCN1C(=O)[C@H](CCCNC(=N)N)NC(=O)[C@H](CCC(N)=O)NC(=O)[C@H](C)NC(=O)[C@H](CCCNC(=N)N)NC(=O)[C@H](Cc1ccccc1)NC(=O)[C@@H](N)CCCCN)C(=O)NC(C)(C)C(=O)N[C@@H](Cc1ccc(Br)cc1)C(=O)O (H-KFRAQRPRLSHKGP[Nle][Aib][Phe(4-Br)]-OH) |  |  | 9.52 | 
9 | CCCC[C@H](NC(=O)[C@@H]1CCCN1C(=O)CNC(=O)[C@H](CCCCN)NC(=O)[C@H](Cc1c[nH]cn1)NC(=O)[C@H](CO)NC(=O)[C@H](CC(C)C)NC(=O)[C@H](CCCNC(=N)N)NC(=O)[C@@H]1CCCN1C(=O)[C@H](CCCNC(=N)N)NC(=O)[C@H](CCC(N)=O)NC(=O)[C@H](CCCNC(=N)N)NC(=O)[C@H](C)NC(=O)[C@H](Cc1ccccc1)NC(=O)[C@@H](N)CCCCN)C(=O)NC(C)(C)C(=O)N[C@@H](Cc1ccc(Br)cc1)C(=O)O (H-KFARQRPRLSHKGP[Nle][Aib][Phe(4-Br)]-OH) |  |  | 9.66 | 

Second part, led by results:

Row | half-life at 400 µM [1] | pEC50 (Apelin receptor [2]) | pIC50 (Apelin receptor [3]) | SMILES | Activity (Mus musculus)
10 |  | 7.13 | 8.66 | CSCC[C@H](NC(=O)[C@@H]1CCCN1C(=O)CNC(=O)[C@H](CCCCN)NC(=O)[C@H](Cc1c[nH]cn1)NC(=O)[C@H](CO)NC(=O)[C@H](CC(C)C)NC(=O)[C@H](CCCNC(=N)N)NC(=O)[C@@H]1CCCN1C(=O)[C@H](CCCNC(=N)N)NC(=O)[C@H](CCC(N)=O)NC(=O)[C@H](C)NC(=O)[C@H](CCCNC(=N)N)NC(=O)[C@H](Cc1ccccc1)NC(=O)[C@@H](N)CCCCN)C(=O)N1CCC[C@H]1C(=O)N[C@@H](Cc1ccccc1)C(=O)O | -9 mmHg
11 |  | 8.27 | 9.00 | CSCC[C@H](NC(=O)[C@@H]1CCCN1C(=O)CNC(=O)[C@H](CCCCN)NC(=O)[C@H](Cc1c[nH]cn1)NC(=O)[C@H](CO)NC(=O)[C@H](CC(C)C)NC(=O)[C@H](CCCNC(=N)N)NC(=O)[C@@H]1CCCN1C(=O)[C@H](CCCNC(=N)N)NC(=O)[C@H](CCC(N)=O)NC(=O)[C@H](CCCNC(=N)N)NC(=O)[C@H](CCCNC(=N)N)NC(=O)[C@H](Cc1ccccc1)NC(=O)[C@H](C)N)C(=O)N1CCC[C@H]1C(=O)N[C@@H](Cc1ccccc1)C(=O)O | -14 mmHg
12 |  | 7.40 | 8.85 | CSCC[C@H](NC(=O)[C@@H]1CCCN1C(=O)CNC(=O)[C@H](CCCCN)NC(=O)[C@H](Cc1c[nH]cn1)NC(=O)[C@H](CO)NC(=O)[C@H](CC(C)C)NC(=O)[C@H](CCCNC(=N)N)NC(=O)[C@@H]1CCCN1C(=O)[C@H](CCCNC(=N)N)NC(=O)[C@H](CCC(N)=O)NC(=O)[C@H](CCCNC(=N)N)NC(=O)[C@H](C)NC(=O)[C@H](Cc1ccccc1)NC(=O)[C@@H](N)CCCCN)C(=O)N1CCC[C@H]1C(=O)N[C@@H](Cc1ccccc1)C(=O)O | 1 mmHg
13 |  | 8.21 | 9.00 | CSCC[C@H](NC(=O)[C@@H]1CCCN1C(=O)CNC(=O)[C@H](CCCCN)NC(=O)[C@H](Cc1c[nH]cn1)NC(=O)[C@H](CO)NC(=O)[C@H](CC(C)C)NC(=O)[C@H](CCCNC(=N)N)NC(=O)[C@@H]1CCCN1C(=O)[C@H](CCCNC(=N)N)NC(=O)[C@H](CCC(N)=O)NC(=O)[C@H](CCCNC(=N)N)NC(=O)[C@H](CCCNC(=N)N)NC(=O)[C@H](C)NC(=O)[C@@H](N)CCCCN)C(=O)N1CCC[C@H]1C(=O)N[C@@H](Cc1ccccc1)C(=O)O | -3 mmHg
